Reference: PubChem BioAssay AID1259420 (Broad Institute, 2018)
Several values for one entry are separate records, joined by “and”; a condition that tells them apart may be missing. Equal values may be shown once. Results filed as inconclusive are left out. Activity calls are given as the source filed them. No rule for the calls is given here.

Each compound was assayed on Toxoplasma gondii growth in host cells, no IFN-gamma (assay: T. gondii intracellular growth, IFN-gamma absent, dose response, cell-based (AID 1259420);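 also: host cells were HeLa; final incubation lasted 72 hours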).

SMILES | AC50
COc1cccc(-c2nc3c(s2)CN(S(=O)(=O)c2ccccc2C)CC3)c1 | 34.7 µM
N#Cc1ccc(-c2ccc3c(c2)[C@@H]2[C@@H](CCN2C(=O)C2CCCCC2)[C@H](CO)N3)cc1 | 18 µM
COc1cccc(-c2ccc(C3[C@H]4CNC[C@@H]3N4Cc3nccs3)cc2)c1 (some centres undefined) | 18.7 µM
Cc1ccccc1S(=O)(=O)N1CC[C@@H]2[C@H]1c1cc(-c3cccc(F)c3)ccc1N(C)[C@H]2CO | 10.7 µM
O=C(c1ccc(F)cc1)N1CC(=O)N2[C@H](C1)[C@H](c1ccc(C#CCC3CCCC3)cc1)[C@@H]2CO | 16.9 µM
CC(=O)O.CC(=O)O.[Cl][Pt+2][Cl].[NH-]C1CCCCC1.[NH2-] | 19.4 µM
CCN1C[C@@H](COC)[C@]2(CCN(C(=O)COc3ccccc3C)C2)C1 | > 39 µM (inactive)
CC(C)CC#Cc1ccc([C@@H]2[C@@H](CO)N3C(=O)CN(C(=O)c4cccc(F)c4)C[C@@H]23)cc1 | 16.4 µM and 13.5 µM
COc1cccc(NC(=O)N2CC(=O)N3[C@H](C2)[C@@H](c2ccc(C#CCC4CCCC4)cc2)[C@@H]3CO)c1 | 15.8 µM and 22.4 µM
O=C1c2c(O)ccc(O)c2C(=O)c2c(NCCNCCO)ccc(NCCNCCO)c21 | 0.209 µM
O=C(C[C@@H]1CC[C@@H]2[C@H](COC[C@@H](O)CN2S(=O)(=O)c2ccccc2)O1)NCC1CCCCC1 | 33.4 µM
Cc1ccc(S(=O)(=O)N2C[C@H](O)COC[C@@H]3O[C@H](CC(=O)NCc4ccc5c(c4)OCO5)CC[C@H]32)cc1 | > 39 µM (inactive)
Cc1nc(N2CCOCC2)nc2c1CCN(C(=O)C1CC1)CC2 | 21.7 µM
CCOCCCNC(=O)c1ccc2ccc(N3CCN(CC4CC4)CC3)n2c1 | > 39 µM (inactive)
O=C(Nc1cccc(F)c1)N1CCCCN2[C@H](CO)[C@H](c3ccc(C#Cc4cccnc4)cc3)[C@@H]2C1 | 1.34 µM and 2.47 µM
COc1cccc(S(=O)(=O)N2CCCCN3[C@@H](CO)[C@H](c4ccc(C#CCC(C)C)cc4)[C@@H]3C2)c1 | 21.4 µM and 16.4 µM and 30.4 µM
O=C(Nc1ccc(F)cc1)N1CC(=O)N2[C@H](C1)[C@@H](c1ccc(-c3cccc(F)c3)cc1)[C@@H]2CO | 29.4 µM and 15.6 µM
CN(C)C(=O)COC[C@@H]1CC[C@H]2[C@H](CCN2CC2CC2)O1 | > 39 µM (inactive)
O=C(NC1CCCC1)N1CCCCN2[C@H](CO)[C@H](c3ccc(-c4cccnc4)cc3)[C@H]2C1 | 18.2 µM
Cn1cnc(S(=O)(=O)N2CCCCN3[C@H](CO)[C@H](c4ccc(C5=CCCCC5)cc4)[C@@H]3C2)c1 | 23.4 µM and 22.7 µM
COc1ccc(NC(=O)N2CCCCN3[C@H](C2)[C@@H](c2ccc(-c4ccccc4F)cc2)[C@@H]3CO)cc1 | 35.8 µM
COc1ccccc1-c1ccc(C2[C@@H]3CN(S(=O)(=O)c4ccc(C)cc4)C[C@H]2N3)cc1 (some centres undefined) | 15.2 µM and > 20 µM (inactive)
N#Cc1ccc(-c2ccc([C@@H]3[C@@H]4CN(S(=O)(=O)Cc5ccccc5)C[C@H]3N4)cc2)cc1 | 9.96 µM
COc1cccc(CN2CCCCN3[C@@H](CO)[C@@H](c4ccc(-c5ccccc5OC)cc4)[C@@H]3C2)c1 | 15.7 µM
O=S(=O)(c1cccs1)N1CCCCN2[C@H](CO)[C@H](c3ccc(/C=C/c4ccccc4)cc3)[C@@H]2C1 | 29 µM

SMILES | AC50
COc1cccc(S(=O)(=O)N2CC[C@@H]3[C@H](CO)Nc4ccc(C5=CCCCC5)cc4[C@@H]32)c1 | 14.1 µM
COc1ccc(-c2nc(Nc3ccc(CN4CCCCC4)cc3)c3ccccc3n2)cc1 | 18.5 µM
O=C(Cc1ccccc1)N1CCC2(CC1)CC(N1CCCC1)CO2 (centres undefined) | > 39 µM (inactive)
O=C(Nc1ccc(F)cc1)N1C[C@@H]2N[C@H](C1)C2c1ccc(/C=C/c2ccccc2)cc1 (some centres undefined) | 9.87 µM
CCCNC(=O)N1CC(=O)N2[C@@H](CO)[C@@H](c3ccc(C#Cc4cccc(OC)c4)cc3)[C@@H]2C1 | 31.2 µM
O=C(c1cnccn1)N1CC(=O)N2[C@H](CO)[C@@H](c3ccc(-c4cccc(F)c4)cc3)[C@@H]2C1 | 20 µM
COc1cccc(S(=O)(=O)N2CCCCN3[C@H](CO)[C@H](c4ccc(-c5ccccc5)cc4)[C@H]3C2)c1 | 13.1 µM
CCN(CC)CCO[C@H]1CC[C@@]2(C)C(=CC[C@@H]3[C@@H]2CC[C@]2(C)C(=O)CC[C@@H]32)C1 | > 39 µM (inactive)
COCCNC(=O)C[C@@H]1C[C@@H]2CN(Cc3ccncc3)C[C@H]2O1 | 29 µM
CCn1c(C2CCCN(C(=O)CCN3CCCCCC3=O)C2)nn(C)c1=O (centres undefined) | 29.4 µM
CCc1ccc(S(=O)(=O)N2CCC3(CCCN(Cc4c(C)noc4C)C3)C2)cc1 (centres undefined) | 35.4 µM
CCc1c(C)sc2c1CCN(Cc1nc(-c3cc(C)ccc3C)oc1C)C2c1ccccc1 (centres undefined) | 16.9 µM
CC(C)C#Cc1ccc([C@H]2[C@@H](CO)N3C(=O)CN(S(=O)(=O)c4ccccc4)C[C@H]23)cc1 | > 39 µM (inactive)
COc1ccc(-c2nc3c(s2)CN(S(=O)(=O)c2ccccc2C)CC3)cc1 | 8.96 µM
COc1ccc(Cc2cnc(N)nc2N)cc1OC | 25.8 µM
COc1ccc(NC(=O)N2CCCCN3[C@H](CO)[C@@H](c4ccc(-c5ccccc5F)cc4)[C@H]3C2)cc1 | 19.7 µM
COc1cccc(-c2ccc3c(c2)[C@@H]2[C@@H](CCN2S(=O)(=O)c2ccccc2F)[C@H](CO)N3)c1 | 10.9 µM
C[C@H]1CN([C@@H](C)CO)C(=O)c2cccc(NS(=O)(=O)c3ccc(F)cc3)c2O[C@H]1CN(C)Cc1ccc(Cl)c(Cl)c1 | 17.6 µM
C/C=C/c1ccc(C2[C@H]3CNC[C@@H]2N3C(=O)NC2CCCCC2)cc1 (some centres undefined) | 13.3 µM
CN1c2ccc(-c3ccccc3)cc2[C@@H]2[C@@H](CCN2C(=O)NC2CCCCC2)[C@H]1CO | 8.76 µM
COc1ccccc1NC(=O)N1CCCCN2[C@H](CO)[C@@H](c3ccc(-c4cccc(C#N)c4)cc3)[C@@H]2C1 | 16.4 µM
CCCC#Cc1ccc([C@@H]2[C@H]3CN(C(=O)Nc4cccc(F)c4)CC(=O)N3[C@H]2CO)cc1 | 29.4 µM and 14.9 µM
C[C@@H]1CN(Cc2ccc(F)cc2)CCN1C(=O)COc1ccc(Cl)cc1NC(N)=O | > 39 µM (inactive)
Cc1ccc(N2CCC3(CC2)CN(CC#N)Cc2ccccc23)nn1 | > 39 µM (inactive)
